Read-outs that look alike come from different tables or passages of the source.
Experiment: Biodistribution of 99mTc(N)(X)(DTC)+ heterocomplexes in rats
Assay type: in vivo, male Spraque-Dawley rats (SD rats)
Description: The biodistribution of a ^99mTc nitride heterocomplex represented by the general formula ^99mTc(N)(X)(Y) was investigated as follows: ^99mTc nitride heterocomplexes were synthesized using DTC as a bidentate ligand Y and each of the diphosphine compounds X described below, and the biodistribution in rats of each heterocomplex was investigated.
Before being injected into rats, the contents of the vial were diluted with phosphate buffer (0.1 mol/dm^3, pH=7.06) containing 10% Tween 80 ([…]). The complexes were stable in the solutions and in human plasma for at least 6 hours.
The biodistribution was measured using male Spraque-Dawley rats (SD rats) weighing 200 to 250 g. After 24 hours fasting, the rats were put under intraperitoneal anesthesia and given an injection in the jugular vein. Then, the organs were excised from the rats at different intervals of time, washed and then weighed. In addition, blood samples were collected and then weighed. The data on the biodistribution are expressed as the mean±significant difference of the percentage of radioactivity level per gram of the organ weight based on the dose of radioactivity, (% dose/g). The measurement was carried out using groups of 5 rats each.

## COCCN1CC[P+](c2ccccc2)(c2ccccc2)[99Tc-2]2(#[N])([NH]N(C)C(SC)=[S+]2)[P+](c2ccccc2)(c2ccccc2)CC1 [^99mTc(N)(PNP2)(DTC)^+]
  Bone % dose/g: 0.209 ± 0.01 % dose/g
  Heart % dose/g: 1.399 ± 0.08 % dose/g
  Liver % dose/g: 3.385 ± 0.81 % dose/g
  Spleen % dose/g: 2.739 ± 0.07 % dose/g
0 min after injection
  Blood % dose/g: 3.220 ± 0.45 % dose/g
  Brain % dose/g: 0.120 ± 0.00 % dose/g
  Intestine % dose/g: 0.906 ± 0.03 % dose/g
  Kidney % dose/g: 5.702 ± 0.732 % dose/g
  Lung % dose/g: 3.568 ± 0.94 % dose/g
  Muscle % dose/g: 0.134 ± 0.01 % dose/g
  Stomach % dose/g: 0.752 ± 0.09 % dose/g
2 min after injection
  Blood % dose/g: 1.025 ± 0.02 % dose/g
  Bone % dose/g: 0.265 ± 0.04 % dose/g
  Brain % dose/g: 0.065 ± 0.01 % dose/g
  Heart % dose/g: 0.728 ± 0.04 % dose/g
  Intestine % dose/g: 1.694 ± 0.18 % dose/g
  Kidney % dose/g: 4.941 ± 0.60 % dose/g
  Liver % dose/g: 7.723 ± 0.20 % dose/g
  Lung % dose/g: 2.040 ± 0.234 % dose/g
  Muscle % dose/g: 0.077 ± 0.00 % dose/g
  Spleen % dose/g: 5.018 ± 0.02 % dose/g
  Stomach % dose/g: 0.0603 ± 0.03 % dose/g
10 min after injection
  Blood % dose/g: 0.355 ± 0.03 % dose/g
  Bone % dose/g: 0.268 ± 0.10 % dose/g
  Brain % dose/g: 0.040 ± 0.00 % dose/g
  Heart % dose/g: 0.736 ± 0.12 % dose/g
  Intestine % dose/g: 2.861 ± 0.74 % dose/g
  Kidney % dose/g: 6.910 ± 0.081 % dose/g
  Liver % dose/g: 4.686 ± 0.89 % dose/g
  Lung % dose/g: 1.481 ± 0.10 % dose/g
  Muscle % dose/g: 0.064 ± 0.02 % dose/g
  Spleen % dose/g: 5.334 ± 0.10 % dose/g
  Stomach % dose/g: 0.517 ± 0.16 % dose/g
30 min after injection
  Blood % dose/g: 0.333 ± 0.03 % dose/g
  Bone % dose/g: 0.301 ± 0.03 % dose/g
  Brain % dose/g: 0.020 ± 0.00 % dose/g
  Heart % dose/g: 0.652 ± 0.19 % dose/g
  Intestine % dose/g: 7.254 ± 0.46 % dose/g
  Kidney % dose/g: 7.542 ± 1.410 % dose/g
  Liver % dose/g: 7.341 ± 0.38 % dose/g
  Lung % dose/g: 1.015 ± 0.16 % dose/g
  Muscle % dose/g: 0.103 ± 0.02 % dose/g
  Spleen % dose/g: 5.131 ± 0.59 % dose/g
  Stomach % dose/g: 1.135 ± 0.298 % dose/g
1 hr after injection
  Blood % dose/g: 0.19 ± 0.01 % dose/g
  Bone % dose/g: 0.294 ± 0.02 % dose/g
  Brain % dose/g: 0.025 ± 0.00 % dose/g
  Heart % dose/g: 0.534 ± 0.02 % dose/g
  Intestine % dose/g: 7.644 ± 1.01 % dose/g
  Kidney % dose/g: 6.713 ± 0.83 % dose/g
  Liver % dose/g: 7.436 ± 1.44 % dose/g
  Lung % dose/g: 1.011 ± 0.01 % dose/g
  Muscle % dose/g: 0.075 ± 0.01 % dose/g
  Spleen % dose/g: 5.073 ± 0.01 % dose/g
  Stomach % dose/g: 0.932 ± 0.12 % dose/g
2 hr after injection
  Blood % dose/g: 0.129 ± 0.02 % dose/g
  Bone % dose/g: 0.357 ± 0.08 % dose/g
  Brain % dose/g: 0.025 ± 0.00 % dose/g
  Heart % dose/g: 0.511 ± 0.05 % dose/g
  Intestine % dose/g: 6.442 ± 0.59 % dose/g
  Kidney % dose/g: 6.799 ± 1.348 % dose/g
  Liver % dose/g: 4.061 ± 0.64 % dose/g
  Lung % dose/g: 0.962 ± 0.02 % dose/g
  Muscle % dose/g: 0.102 ± 0.02 % dose/g
  Spleen % dose/g: 5.507 ± 0.84 % dose/g
  Stomach % dose/g: 1.701 ± 0.34 % dose/g
4 hr after injection
  Blood % dose/g: 0.087 ± 0.00 % dose/g
  Bone % dose/g: 0.329 ± 0.01 % dose/g
  Brain % dose/g: 0.018 ± 0.00 % dose/g
  Heart % dose/g: 0.506 ± 0.04 % dose/g
  Intestine % dose/g: 4.054 ± 0.39 % dose/g
  Kidney % dose/g: 7.471 ± 0.03 % dose/g
  Liver % dose/g: 1.784 ± 0.25 % dose/g
  Lung % dose/g: 0.670 ± 0.09 % dose/g
  Muscle % dose/g: 0.08 ± 0.00 % dose/g
  Spleen % dose/g: 5.055 ± 0.02 % dose/g
  Stomach % dose/g: 1.220 ± 0.150 % dose/g
